Measurements taken from US20230233569A1 (Revolution Medicines, Inc., priority 2020, published 2023).

Columns and labels:
AsPC-1 (K-Ras G12D) [1] = assay: Potency assay: pERK; format: cell-based; details: Homo sapiens, ASPC1, read-out: pERK EC50
AsPC-1 (K-Ras G12D) [2] = assay: CellTiter-Glo cell viability assay; format: cell-based; details: Homo sapiens, ASPC1, 120 h, read-out: AsPC-1 Cell Viability assay data IC50, K-Ras G12D, 5-day treatment
How it was run: (§1)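 Luminescent viability readout on day 5, plates first brought to room temperature for ~30 min; compounds added straight to plated RAS-mutant cells. Values expressed as percent of mean DMSO signal, curves fitted with a four-parameter logistic model.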

NCI-H358 (K-Ras G12C) = assay: CellTiter-Glo cell viability assay; format: cell-based; details: Homo sapiens, NCI-H358, 120 h, read-out: H358 Cell Viability assay data IC50, K-Ras G12C, 5-day treatment
How it was run: as §1

KRAS G12D = KRAS G12D (Homo sapiens, UniProt P01116+P62937, G12D); assay: Ras-Raf disruption / FRET / MOA assay (BRAF RBD); format: biochemical; details: KRAS G12D FRET data IC50, Ras-Raf disruption, with Cyclophilin A
How it was run: (§2)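 Compound-induced Ras–Cyclophilin A ternary complex disrupting BRAF RBD binding, read as IC50 from reduced TR-FRET ratio relative to DMSO. Final: Ras-GMPPNP 12.5 nM, BRAF RBD 50 nM, Cyclophilin A 25 μM, top compound 30 μM (3-fold, 10 points); 3 h at 25 °C, then 1.5 h with detection antibodies.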

KRAS G12S = KRAS G12S (Homo sapiens, UniProt P01116+P62937, G12S); assay: Ras-Raf disruption / FRET / MOA assay (BRAF RBD); format: biochemical; details: KRAS G12S FRET data IC50, Ras-Raf disruption, with Cyclophilin A
How it was run: as §2

KRAS G12V = KRAS G12V (Homo sapiens, UniProt P01116+P62937, G12V); assay: Ras-Raf disruption / FRET / MOA assay (BRAF RBD); format: biochemical; details: KRAS G12V FRET data IC50, Ras-Raf disruption, with Cyclophilin A
How it was run: as §2

KRAS G13C = KRAS G13C (Homo sapiens, UniProt P01116+P62937, G13C); assay: Ras-Raf disruption / FRET / MOA assay (BRAF RBD); format: biochemical; details: KRAS G13C FRET data IC50, Ras-Raf disruption, with Cyclophilin A
How it was run: as §2

KRAS G13D = KRAS G13D (Homo sapiens, UniProt P01116+P62937, G13D); assay: Ras-Raf disruption / FRET / MOA assay (BRAF RBD); format: biochemical; details: KRAS G13D FRET data IC50, Ras-Raf disruption, with Cyclophilin A
How it was run: as §2

KRAS Q61H = KRAS Q61H (Homo sapiens, UniProt P01116+P62937, Q61H); assay: Ras-Raf disruption / FRET / MOA assay (BRAF RBD); format: biochemical
How it was run: as §2

KRAS WT = KRAS WT (Homo sapiens, UniProt P01116+P62937); assay: Ras-Raf disruption / FRET / MOA assay (BRAF RBD); format: biochemical; details: KRAS WT FRET data IC50, Ras-Raf disruption, with Cyclophilin A
How it was run: as §2

NRAS G12C = NRAS G12C (Homo sapiens, UniProt P01111+P62937, G12C); assay: Ras-Raf disruption / FRET / MOA assay (BRAF RBD); format: biochemical; details: NRAS G12C FRET data IC50, NRAS G12C
How it was run: as §2

NRAS Q61K = NRAS Q61K (Homo sapiens, UniProt P01111+P62937, Q61K); assay: Ras-Raf disruption / FRET / MOA assay (BRAF RBD); format: biochemical
How it was run: as §2

NRAS Q61R = NRAS Q61R (Homo sapiens, UniProt P01111+P62937, Q61R); assay: Ras-Raf disruption / FRET / MOA assay (BRAF RBD); format: biochemical
How it was run: as §2

NRAS WT = NRAS WT (Homo sapiens, UniProt P01111+P62937); assay: Ras-Raf disruption / FRET / MOA assay (BRAF RBD); format: biochemical
How it was run: as §2

KRAS G12C = KRAS G12C (Homo sapiens, UniProt P01116+P62937, G12C); assay: Ras-Raf disruption / FRET / MOA assay (BRAF RBD); format: biochemical; details: KRAS G12C FRET data IC50, Ras-Raf disruption, with Cyclophilin A
How it was run: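 TR-FRET read-out after 1.5 h with anti-His Eu-W1024 (10 nM) and anti-GST APC (50 nM), following 3 h at 25 °C of compound (top 30 μM, 3-fold, 10 points) with 25 μM Cyclophilin A, 12.5 nM GMPPNP-loaded K-Ras G12C and 50 nM BRAF RBD; IC50 reported.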

Chain of KRAS WT (P01116 1-169 isoform P01116-2 limits assumed): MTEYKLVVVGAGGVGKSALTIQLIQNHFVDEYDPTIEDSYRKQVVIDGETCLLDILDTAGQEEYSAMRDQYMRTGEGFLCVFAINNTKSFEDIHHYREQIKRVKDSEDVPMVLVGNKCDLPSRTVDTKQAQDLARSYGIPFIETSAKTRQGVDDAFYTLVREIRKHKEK
Chain of KRAS WT (P62937 whole entry): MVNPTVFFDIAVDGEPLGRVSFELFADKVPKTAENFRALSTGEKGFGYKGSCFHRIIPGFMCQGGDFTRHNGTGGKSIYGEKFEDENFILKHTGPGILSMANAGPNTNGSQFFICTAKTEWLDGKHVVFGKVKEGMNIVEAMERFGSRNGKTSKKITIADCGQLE
Chain of NRAS G12C (P01111 whole entry G12C): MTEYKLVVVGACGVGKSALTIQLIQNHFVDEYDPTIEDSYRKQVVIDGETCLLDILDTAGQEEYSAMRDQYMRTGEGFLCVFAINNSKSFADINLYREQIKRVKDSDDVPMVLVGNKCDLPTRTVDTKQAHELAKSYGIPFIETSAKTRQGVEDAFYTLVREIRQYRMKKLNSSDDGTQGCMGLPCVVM
Chain of NRAS G12C (P62937 whole entry): as the sequence (P62937 whole entry) above
Chain of KRAS G13D (P01116 1-169 isoform P01116-2 G13D limits assumed): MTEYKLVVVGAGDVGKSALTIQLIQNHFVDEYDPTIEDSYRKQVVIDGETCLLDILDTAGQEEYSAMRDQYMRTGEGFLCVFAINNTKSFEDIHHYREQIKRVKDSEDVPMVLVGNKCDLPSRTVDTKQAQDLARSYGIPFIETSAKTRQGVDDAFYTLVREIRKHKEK
Chain of KRAS G13D (P62937 whole entry): as the sequence (P62937 whole entry) above
Chain of KRAS G12V (P01116 1-169 isoform P01116-2 G12V limits assumed): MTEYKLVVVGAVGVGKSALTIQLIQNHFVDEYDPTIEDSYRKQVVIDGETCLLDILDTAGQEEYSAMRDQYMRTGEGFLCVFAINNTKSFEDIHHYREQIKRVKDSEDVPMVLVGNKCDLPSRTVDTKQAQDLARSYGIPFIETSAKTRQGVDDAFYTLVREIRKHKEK
Chain of KRAS G12V (P62937 whole entry): as the sequence (P62937 whole entry) above
Chain of KRAS G12S (P01116 1-169 isoform P01116-2 G12S limits assumed): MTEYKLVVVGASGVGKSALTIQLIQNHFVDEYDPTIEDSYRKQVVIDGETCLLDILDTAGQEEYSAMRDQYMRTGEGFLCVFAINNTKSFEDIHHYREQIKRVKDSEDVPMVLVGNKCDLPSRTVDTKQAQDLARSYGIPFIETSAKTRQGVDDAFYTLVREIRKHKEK
Chain of KRAS G12S (P62937 whole entry): as the sequence (P62937 whole entry) above
Chain of KRAS Q61H (P01116 1-169 isoform P01116-2 Q61H limits assumed): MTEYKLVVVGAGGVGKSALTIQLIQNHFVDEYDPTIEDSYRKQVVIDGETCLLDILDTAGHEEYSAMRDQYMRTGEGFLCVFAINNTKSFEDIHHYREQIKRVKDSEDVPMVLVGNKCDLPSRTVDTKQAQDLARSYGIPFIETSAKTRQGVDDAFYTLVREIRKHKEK
Chain of KRAS Q61H (P62937 whole entry): as the sequence (P62937 whole entry) above
Chain of KRAS G13C (P01116 1-169 isoform P01116-2 G13C limits assumed): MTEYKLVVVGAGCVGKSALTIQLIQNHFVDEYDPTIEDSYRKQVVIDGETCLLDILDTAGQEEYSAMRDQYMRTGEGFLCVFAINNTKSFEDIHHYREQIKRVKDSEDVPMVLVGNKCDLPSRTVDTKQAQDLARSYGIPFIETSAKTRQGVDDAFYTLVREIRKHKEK
Chain of KRAS G13C (P62937 whole entry): as the sequence (P62937 whole entry) above
Chain of KRAS G12C (P01116 1-169 isoform P01116-2 G12C limits assumed): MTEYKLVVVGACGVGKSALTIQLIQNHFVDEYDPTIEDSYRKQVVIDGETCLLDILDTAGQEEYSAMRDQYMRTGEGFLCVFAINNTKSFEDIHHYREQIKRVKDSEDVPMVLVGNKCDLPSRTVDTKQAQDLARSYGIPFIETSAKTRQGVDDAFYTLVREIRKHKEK
Chain of KRAS G12C (P62937 whole entry): as the sequence (P62937 whole entry) above
Chain of KRAS G12D (P01116 1-169 isoform P01116-2 G12D limits assumed): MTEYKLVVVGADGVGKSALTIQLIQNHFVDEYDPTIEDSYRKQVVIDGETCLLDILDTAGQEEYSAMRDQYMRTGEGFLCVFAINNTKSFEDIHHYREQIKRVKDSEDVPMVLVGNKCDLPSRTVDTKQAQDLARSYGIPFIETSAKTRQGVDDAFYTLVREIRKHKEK
Chain of KRAS G12D (P62937 whole entry): as the sequence (P62937 whole entry) above
Chain of NRAS WT (P01111 whole entry): as the sequence (P01111 whole entry G12C) above, with C12G counted along it
Chain of NRAS WT (P62937 whole entry): as the sequence (P62937 whole entry) above
Chain of NRAS Q61R (P01111 whole entry Q61R): as the sequence (P01111 whole entry G12C) above, with C12G, Q61R counted along it
Chain of NRAS Q61R (P62937 whole entry): as the sequence (P62937 whole entry) above
Chain of NRAS Q61K (P01111 whole entry Q61K): as the sequence (P01111 whole entry G12C) above, with C12G, Q61K counted along it
Chain of NRAS Q61K (P62937 whole entry): as the sequence (P62937 whole entry) above

SMILES | EC50 (AsPC-1 (K-Ras G12D) [1]) [nM] | IC50 (AsPC-1 (K-Ras G12D) [2]) [nM] | IC50 (NCI-H358 (K-Ras G12C)) [nM] | IC50 (KRAS G12D) [nM] | IC50 (KRAS G12S) [nM] | IC50 (KRAS G12V) [nM] | IC50 (KRAS G13C) [nM] | IC50 (KRAS G13D) [nM] | IC50 (KRAS Q61H) [nM] | IC50 (KRAS WT) [nM] | IC50 (NRAS G12C) [nM] | IC50 (NRAS Q61K) [nM] | IC50 (NRAS Q61R) [nM] | IC50 (NRAS WT) [nM] | IC50 (KRAS G12C) [nM]
CCn1c(-c2cccnc2[C@H](C)OC)c2c3cc(ccc31)-c1cc(O)cc(c1)C[C@H](NC(=O)[C@H](C(C)C)N(C)C(=O)CN(C)C(=O)[C@H]1N[C@H]1C(F)(F)F)C(=O)N1CCC[C@H](N1)C(=O)OCC(C)(C)C2 [Example 259] | < 5000 | 100 to 1000 | 10 to 100 | 100 to 1000 | 10 to 100 | 10 to 100 | 10 to 100 | 10 to 100 | 10 to 100 | 10 to 100 | 10 to 100 | 100 to 1000 | 100 to 1000 | 10 to 100 | 10 to 100
CCn1c(-c2cccnc2[C@H](C)OC)c2c3cc(ccc31)-c1cc(O)cc(c1)C[C@H](NC(=O)[C@H](C(C)C)N(C)C(=O)CN(C)C(=O)[C@@H]1N[C@H]1C(F)(F)F)C(=O)N1CCC[C@H](N1)C(=O)OCC(C)(C)C2 [Example 260] | < 5000 | 100 to 1000 | 10 to 100 | 10 to 100 | 10 to 100 | 10 to 100 | < 10 | 10 to 100 | 10 to 100 | 10 to 100 | 10 to 100 | 10 to 100 | 100 to 1000 | 10 to 100 | 10 to 100
CCn1c(-c2cccnc2[C@H](C)OC)c2c3cc(ccc31)-c1cc(O)cc(c1)C[C@H](NC(=O)[C@H](C(C)C)N(C)C(=O)CN(C)C(=O)[C@H]1N[C@@H]1C(F)(F)F)C(=O)N1CCC[C@H](N1)C(=O)OCC(C)(C)C2 [Example 261] | < 5000 | 100 to 1000 | < 10 | 10 to 100 | 10 to 100 | 10 to 100 | 10 to 100 | 10 to 100 | 10 to 100 | 10 to 100 | 10 to 100 | 100 to 1000 | 100 to 1000 | 10 to 100 | 10 to 100
CC[C@H]1N[C@H]1C(=O)N(C)CC(=O)N(C)[C@H](C(=O)N[C@H]1Cc2cc(O)cc(c2)-c2ccc3c(c2)c(c(-c2cccnc2[C@H](C)OC)n3CC)CC(C)(C)COC(=O)[C@@H]2CCCN(N2)C1=O)C(C)C [Example 262] | < 5000 | 100 to 1000 | 10 to 100 | 100 to 1000 | 10 to 100 | 10 to 100 | 10 to 100 | 10 to 100 | 10 to 100 | 10 to 100 | 10 to 100 | 100 to 1000 | 100 to 1000 | 10 to 100 | 10 to 100
CC[C@@H]1N[C@@H]1C(=O)N(C)CC(=O)N(C)[C@H](C(=O)N[C@H]1Cc2cc(O)cc(c2)-c2ccc3c(c2)c(c(-c2cccnc2[C@H](C)OC)n3CC)CC(C)(C)COC(=O)[C@@H]2CCCN(N2)C1=O)C(C)C [Example 263] | < 5000 | 100 to 1000 | 10 to 100 | 10 to 100 | 10 to 100 | 10 to 100 | 10 to 100 | 10 to 100 | 10 to 100 | 10 to 100 | < 10 | 100 to 1000 | 100 to 1000 | 10 to 100 | < 10
